# Measurements reported in patent US20170079966A1, “INHIBITION OF TUMOR CELL INTERACTIONS WITH THE MICROENVIRONMENT RESULTING IN A REDUCTION IN TUMOR GROWTH AND DISEASE PROGRESSION” (Deciphera Pharmaceuticals, LLC, priority 2014, published 2017).
# How the values were obtained:
# [1] = test system: SK-MEL-28 and SK-MEL-5 cells (pERK, pMET, AKT); assay: HGF-stimulated melanoma cell signal transduction assay; type: cell-based; conditions: 50 nM, 50 ng/mL HGF 1 hr
# Experimental: SK-MEL-5 and SK-MEL-28 cells were added to 12-well plates at 450,000 and 250,000 cells/well, respectively, and incubated overnight. […] Cells were then stimulated with 50 ng/mL HGF for 1 hr. Antibodies were obtained from Cell Signaling Technology.
# GSC17 glioblastoma cells = assay: GSC17 glioma stem cell patient-derived xenograft model (tumor volume, immunohistochemistry); type: in vivo, mice
# Experimental: (§1) For the in vivo experiments, 4- to 6-week-old female nude mice that were strictly inbred at The University of Texas MD Anderson Cancer Center and maintained in the MD Anderson Veterinary in accordance with institutional guidelines were used. For the in vivo experiments, GSC11 (5×10^5) or GSC17 (5×10^4) glioblastoma cells were implanted intracranially into nude mice. […] Control mice for these cohorts were treated with phosphate-buffered saline by i.p. injection and/or with 0.4% HPMC vehicle by oral gavage. One cohort of 10 mice per group were treated continuously and followed for survival. A separate cohort of 9 mice per group were treated continuously until the designated time point, and the tumors from these mice were extracted at 3, 4, 5 weeks in GSC11 xenograft mice model and at 3.5, 4.5, 5.5 weeks in GSC17 xenograft mice model after the start of treatment.
# (§2) When the mice treated for the designated time period developed signs and symptoms of advanced tumors, they were euthanized, and their brains were removed, fixed in 4% formaldehyde for 24 hours, and embedded in paraffin. The tissues were then sectioned serially (4 μm) and stained with hematoxylin and eosin (Sigma-Aldrich). Tumor formation and phenotype were determined by histologic analysis of the hematoxylin- and eosin-stained sections. The tumor volume, greatest longitudinal diameter (length), and greatest transverse diameter (width) were measured using an external caliper and Adobe Illustrator software. The tumor volumes were calculated by the following formula: volume=½(length×width^2).
# (§3) For immunohistochemical analyses, the tissue sections were deparaffinized and subjected to graded rehydration. After blocking the tissue in 5% horse and goat serum and antigen retrieval solution (citrate buffer, pH 6.0), we incubated the tissue sections overnight at 4° C. with primary antibodies against Factor VIII (1:500; A0082, Dako) to assess microvessel formation, vimentin (1:100; M0725, Dako) to assess mesenchymal marker expression, F4/80 (1:50; 123102, BioLegend) to assess monocyte infiltration, nestin (1:300; Ab6142, Abcam) to assess glioma stem cell marker expression, HGF (1:200; LS-B4657, LSBio), and TIE2 (1:50; Santa Cruz Biotechnology) to assess TIE2-expressing monocyte infiltration. Texas red fluorescein isothiocyanate-conjugated secondary antibodies or anti-rat immunoglobulin G antibodies (Invitrogen) were used for 1 hour at room temperature.
# (§4) All statistical analyses were conducted with the GraphPad 6 (InStat) software for Windows 7. Survival analysis was conducted using the Kaplan-Meier method, and differences in survival between treatment groups were assessed using the log-rank test. All other comparisons were performed using an unpaired two-tailed Student t-test. Summary statistics for continuous data are expressed as the mean±standard error of the mean. P values less than 0.05 were considered statistically significant. The nestin staining was assessed using the Image-Pro Plus system version 7.0 (Media Cybernetics) in ×10 fields of at least three tumor samples per group with three to four different sections per tumor sample.
# GSC11 glioblastoma cells = assay: GSC11 glioma stem cell patient-derived xenograft model (tumor volume, immunohistochemistry); type: in vivo, mice
# Experimental: as §1, §2, §3, §4
# U87-MG xenograft glioma [2] = assay: Orthotopic U87-MG xenograft survival model; conditions: bevacizumab 10 mg/kg IP twice weekly; Compound 1 10 mg/kg twice daily PO; from Day 12
# Experimental: Protocol for in vivo xenograft survival study. Female nude mice were implanted intracranially with one million luciferase-enabled U87-MG cells. Treatments began on Day 12. Mice (n=10/group) were dosed until the end of study. Three additional mice were treated as above for pharmacodynamic analysis after five weeks. Brain BLI signal was determined using an IVIS 50 optical imaging system (Xenogen, Alameda, Calif.). Animals were injected IP with 150 mg/kg D-Luciferin and imaged 10 min post-injection.
# Treatment began on Day 12, when the mean brain BLI signal was 5.8×10^6 photons/sec, and continued until the end of study. Mice were followed through survival.
# PyMT mammary tumor = assay: PyMT syngeneic breast cancer model; type: in vivo, mice
# Experimental: Female FVB/NJ mice were implanted in the 4th mammary fat pad with one million cells that had been dissociated from tumor fragments from MMTV-PyMT donor mice. […] Mice (n=10/group) were dosed for three weeks, then, primary tumor and lungs were collected and fixed. Lung sections were stained with H&E at Premier Laboratory. Lung metastases (≧10 cells) were counted manually via microscopy. Data were analyzed via one-way analysis of variance (ANOVA), with post-hoc analysis by the method of Holm-Sidak. For analysis of TIE2-positive macrophages, tumor sections were stained with TIE2 and CD31 antibodies at Premier Laboratory. The density of TIE2-positive cells at the stroma/tumor boundary in each tumor was scored using 0=no staining, 1=low, 2=medium, and 3=high.
# U87-MG xenograft glioma [3] = assay: Orthotopic U87-MG xenograft efficacy model (BLI); type: in vivo, mice; conditions: after two weeks of treatment; bevacizumab 5 mg/kg IP every three days; Compound 1 10 mg/kg BID
# Experimental: Protocol for in vivo xenograft efficacy study. […] Treatments began on Day 31.
# The tumor cells were injected intracerebroventricularly (ICV) and tumor growth was monitored in vivo by quantitation of luciferase-mediated BLI.
smiles,measurement,setting,value
"O=C(Nc1cc(Oc2cc(F)c(NC(=O)C3(C(=O)Nc4ccc(F)cc4)CC3)cc2F)ccn1)C1CC1 [Compound 1, N-(4-(2-(cyclopropanecarboxamido)pyridin-4-yloxy)-2,5-difluorophenyl)-N′-(4-fluorophenyl)cyclopropane-1,1-dicarboxamide]",HGF-induced activation of MET and AKT,[1],inhibited
same,Tumor volume at 3.5 weeks,"GSC17 glioblastoma cells; GSC17, bevacizumab 10 mg/kg i.p. twice per week, Compound 1 10 mg/kg oral twice daily",0.1±0.2 mm^3
same,Tumor volume at 4.5 weeks,"GSC17 glioblastoma cells; GSC17, same dosing",9.8±3.9 mm^3
same,Tumor volume at 5.5 weeks,"GSC17 glioblastoma cells; GSC17, same dosing",10.1±1.4 mm^3
same,Factor VIII-positive area,GSC17 glioblastoma cells; GSC17 xenograft mouse model,1.0±0.2%
same,Nestin-positive area,GSC17 glioblastoma cells; GSC17 xenograft mouse model,2.9±1.0%
same,Mesenchymal tumor marker vimentin / EMT (immunohistochemistry),GSC17 glioblastoma cells; GSC-17 glioma model,decreases levels of vimentin
same,Tumor infiltration of TIE2-positive/F4/80-positive cells,GSC17 glioblastoma cells; GSC-17 glioma xenograft model,lower
same,Tumor volume at 3 weeks,"GSC11 glioblastoma cells; GSC11, bevacizumab 10 mg/kg i.p. twice per week, Compound 1 10 mg/kg oral twice daily",1.2±0.5 mm^3
same,Tumor volume at 4 weeks,"GSC11 glioblastoma cells; GSC11, same dosing",9.8±2.8 mm^3
same,Tumor volume at 5 weeks,"GSC11 glioblastoma cells; GSC11, same dosing",32.3±14.6 mm^3
same,Factor VIII-positive area,GSC11 glioblastoma cells; GSC11 model,1.1±0.5%
same,Nestin-positive area,GSC11 glioblastoma cells; GSC11 xenograft mouse model,17.7±2.7%
same,Mesenchymal tumor marker vimentin / EMT (immunohistochemistry),GSC11 glioblastoma cells; GSC-11 glioma model,does not cause elevation of vimentin
same,Macrophage infiltration into tumor (F4/80 IHC staining),GSC11 glioblastoma cells; GSC-11 glioma xenograft model,does not result in therapy resistance-mediated increases in macrophage infiltration
same,Median survival,U87-MG xenograft glioma [2],112 days
same,Tumor growth inhibition (TGI),"PyMT mammary tumor; after dosing for three weeks, paclitaxel 10 mg/kg i.v. every 5 days, Compound 1 15 mg/kg twice daily",69%
same,Reduction of TIE2 score (stromal density of TIE2+ cells),PyMT mammary tumor; same dosing,50%
same,Reduction of lung metastases compared to controls,PyMT mammary tumor; same dosing,74%
same,Decrease in BLI signal compared to vehicle,U87-MG xenograft glioma [3],90%
